Test: solvent given as SMILES
Settings: in C1CCCCC1

| SMILES | emission maximum |
| --- | --- |
| c1ccc(-c2c3c(cc4c2-c2ccccc2C4)-c2ccccc2C3)cc1 | 364 nm |
| CN(C)c1ccc(/C=C/c2ccc(-c3nc(C#N)c(C#N)n3C)cc2)cc1 | 437 nm |
| c1ccc2cc(-n3c4ccccc4c4ccccc43)ccc2c1 | 362 nm |
| CCC1=C(C)C2=C(C)c3cc(I)c(I)n3[B-](F)(F)[N+]2=C1C | 546 nm |
| CCC1=C(C)C2=Cc3cc(I)c(I)n3[B-](F)(F)[N+]2=C1C | 550.5 nm |
| CCCCC1(CCCC)c2cc(C#Cc3ccc4ccc5cccc6ccc3c4c56)ccc2-c2ccc(C#Cc3ccc4ccc5cccc6ccc3c4c56)cc21 | 433 nm |
| COc1ccccc1-c1nc(-c2ccccc2)c2ccccn12 | 477 nm |

Same assay, conditions: in C1CCOC1

| SMILES | emission maximum |
| --- | --- |
| Cn1c(=O)c(/N=N/c2ccc(S(=O)(=O)O)c3ccccc23)c(O)c2ccccc21 | 548 nm |
| CCOc1cc(C=C2c3ccccc3-c3ccccc32)c(OCC)cc1C=C1c2ccccc2C=Cc2ccccc21 | 474 nm |
| Cc1ccc(C2=C3C=CC(Sc4ccccc4)=[N+]3[B-](F)(F)n3c(Sc4ccccc4)ccc32)cc1 | 599 nm |
| c1ccc2cc(-n3c4ccccc4c4ccccc43)ccc2c1 | 374 nm |
| CCCCC1(c2ccc(OC)cc2)Nc2ccccc2N=C1c1ccc(OC)cc1 (stereo not given) | 513 nm |
| O=c1c2cc(-n3c4ccccc4c4ccccc43)ccc2sc2ccc(-n3c4ccccc4c4ccccc43)cc12 | 460 nm |
| Cc1cc(C)c(B(c2ccc(-c3nc4c5ccccc5c5ccccc5c4[nH]3)cc2)c2c(C)cc(C)cc2C)c(C)c1 | 456 nm |
| CCCCC1(CCCC)c2cc(C#Cc3ccc4ccc5cccc6ccc3c4c56)ccc2-c2ccc(C#Cc3ccc4ccc5cccc6ccc3c4c56)cc21 | 437 nm |
| COc1cc(OC)cc(C2=C3C(C)=C(I)C(/C=C/c4ccsc4)=[N+]3[B-](F)(F)n3c(/C=C/c4ccsc4)c(I)c(C)c32)c1 | 680 nm |
| C1=Cc2ccccc2C(=Cc2ccc(C=C3c4ccccc4C=Cc4ccccc43)cc2)c2ccccc21 | 405 nm |
| N#C/C(=C\c1ccc(C=C(c2ccccc2)c2ccccc2)cc1)c1ccc([N+](=O)[O-])cc1 | 552 nm |

Same assay, conditions: in C1COCCO1

| emission maximum | SMILES |
| --- | --- |
| 518 nm | C(/C=C/c1cc2c3c(c1)CCCN3CCC2)=C\c1ccncc1 |
| 366 nm | COc1cccc(-n2c(-c3ccccc3)nc(C)c2C)c1 |

| SMILES | emission maximum |
| --- | --- |
| CC1(C)c2ccccc2N(c2ccc3c(c2)c2cc(N4c5ccccc5C(C)(C)c5ccccc54)ccc2c2nc(C#N)c(C#N)nc32)c2ccccc21 | 753.65 nm |

Same assay, conditions: in CC#N

| SMILES | emission maximum |
| --- | --- |
| C(/C=C/c1cc2c3c(c1)CCCN3CCC2)=C\c1ccncc1 | 569 nm |
| c1ccc2cc(-n3c4ccccc4c4ccccc43)ccc2c1 | 388 nm |
| C[C@]12SC(=O)C=C1c1nc(-c3ccc(Cl)cc3)[nH]c1C1=CC(=O)S[C@@]12C | 509 nm |
| CCCCC1(c2ccc(OC)cc2)Nc2ccccc2N=C1c1ccc(OC)cc1 (stereo not given) | 522 nm |
| CCCCC1(CCCC)c2cc(C#Cc3ccc4ccc5cccc6ccc3c4c56)ccc2-c2ccc(C#Cc3ccc4ccc5cccc6ccc3c4c56)cc21 | 433 nm |
| c1ccc(-c2c3c(c(-c4ccccc4)c4cc5ccccc5cc24)Cc2c(c(-c4ccccc4)c4cc5ccccc5cc4c2-c2ccccc2)C3)cc1 | 400 nm |
| CC(=O)[B-]1(C(C)=O)OC(c2ccccc2)=CC(c2ccccc2)=[O+]1 | 400 nm |

More lines, now with the values ahead:

| emission maximum | SMILES |
| --- | --- |
| 741 nm | CC1=[N+]2C(=C(C3=CC4OCCOCCOCCOCCOC4C=C3)c3c4ccccc4c(/C=C/c4ccc(N(C)C)cc4)n3[B-]2(F)F)c2ccccc21 (stereo not given) |
| 530 nm | CN(C)c1ccc(/C=C/c2ccc(-c3nc(C#N)c(C#N)n3C)cc2)cc1 |
| 480 nm | Cc1cccc(-c2[nH]c(=O)n3c2-c2ccccc2C3=O)c1O |
| 491 nm | F[B-]1(F)OC(c2ccc3c(c2)Cc2ccccc2-3)=CC(c2ccccc2)=[O+]1 |
| 484 nm | COC(=O)c1cc(=O)n(C)c2cc(-c3ccccc3N(C)C)sc12 |
| 525 nm | COC(=O)c1ccccc1-c1c2ccc(=[NH2+])cc-2oc2cc(N)ccc12 |
| 373 nm | COc1cccc(-n2c(-c3ccccc3)nc(C)c2C)c1 |
| 532 nm | Cc1ccc(-c2ccc(/C=C/c3ccc(N(C)C)cc3)cn2)nc1 |
| 479 nm | COc1ccccc1-c1nc(-c2ccccc2)c2ccccn12 |

Same assay, conditions: in CC(C)(C)c1ccc(-n2c3ccc([Si](c4ccccc4)(c4ccccc4)c4ccccc4)cc3c3cc([Si](c4ccccc4)(c4ccccc4)c4ccccc4)ccc32)cc1

| SMILES | emission maximum |
| --- | --- |
| c1ccc2c(c1)-c1ccccc1C21c2ccccc2N(c2ccc(-c3nc([C@]45CC6CC(C[C@@H](C6)C4)C5)nc([C@]45C[C@H]6C[C@@H](C[C@H](C6)C4)C5)n3)cc2)c2ccccc21 | 448.69 nm |

Same assay, conditions: in CC(C)=O

| SMILES | emission maximum |
| --- | --- |
| Cn1c(=O)c(/N=N/c2ccc(S(=O)(=O)O)c3ccccc23)c(O)c2ccccc21 | 564 nm |
| CCC1=C(C)C2=C(C)c3cc(I)c(I)n3[B-](F)(F)[N+]2=C1C | 544.5 nm |
| Cc1cc(C)c(B(c2ccc(-c3nc4c5ccccc5c5ccccc5c4[nH]3)cc2)c2c(C)cc(C)cc2C)c(C)c1 | 469 nm |
| CCC1=C(C)C2=Cc3cc(I)c(I)n3[B-](F)(F)[N+]2=C1C | 552.5 nm |

Same assay, conditions: in CCCCCC

| SMILES | emission maximum |
| --- | --- |
| C(=C\c1cnccn1)/c1ccc2nccnc2c1 | 403 nm |
| CCCCC1(c2ccc(OC)cc2)Nc2ccccc2N=C1c1ccc(OC)cc1 (stereo not given) | 485 nm |
| COc1cccc(-n2c(-c3ccccc3)nc(C)c2C)c1 | 365 nm |
| O=c1c2cc(-n3c4ccccc4c4ccccc43)ccc2sc2ccc(-n3c4ccccc4c4ccccc43)cc12 | 438 nm |
| CC1(C)c2ccccc2N(c2ccc3c(c2)c2cc(N4c5ccccc5C(C)(C)c5ccccc54)ccc2c2nc(C#N)c(C#N)nc32)c2ccccc21 | 572.45 nm |
| c1ccc(-c2c3c(c(-c4ccccc4)c4cc5ccccc5cc24)Cc2c(c(-c4ccccc4)c4cc5ccccc5cc4c2-c2ccccc2)C3)cc1 | 396 nm |

Same assay, conditions: in CCCCCCC

| emission maximum | SMILES |
| --- | --- |
| 442 nm | C(/C=C/c1cc2c3c(c1)CCCN3CCC2)=C\c1ccncc1 |

Same assay, conditions: in CCCCO

| emission maximum | SMILES |
| --- | --- |
| 370 nm | COc1cccc(-n2c(-c3ccccc3)nc(C)c2C)c1 |

Same assay, conditions: in CCO

| SMILES | emission maximum |
| --- | --- |
| c1ccc2cc(-n3c4ccccc4c4ccccc43)ccc2c1 | 379 nm |
| CCC1=C(C)C2=C(C)c3cc(I)c(I)n3[B-](F)(F)[N+]2=C1C | 548 nm |
| CCC1=C(C)C2=Cc3cc(I)c(I)n3[B-](F)(F)[N+]2=C1C | 555 nm |

Second part, the molecule after the results:

| emission maximum | SMILES |
| --- | --- |
| 438 nm | O=Cc1cnc(-c2c3ccccc3cc3ccccc23)nc1 |
| 435 nm | C(=C\c1cnccn1)/c1ccc2nccnc2c1 |
| 529 nm | COC(=O)c1ccccc1-c1c2ccc(=[NH2+])cc-2oc2cc(N)ccc12 |
| 369 nm | COc1cccc(-n2c(-c3ccccc3)nc(C)c2C)c1 |

Same assay, conditions: in CCOC(C)=O

| SMILES | emission maximum |
| --- | --- |
| Cn1c(=O)c(/N=N/c2ccc(S(=O)(=O)O)c3ccccc23)c(O)c2ccccc21 | 555 nm |
| c1ccc2cc(-n3c4ccccc4c4ccccc43)ccc2c1 | 372 nm |
| CCC1=C(C)C2=C(C)c3cc(I)c(I)n3[B-](F)(F)[N+]2=C1C | 544.5 nm |
| COc1cccc(-n2c(-c3ccccc3)nc(C)c2C)c1 | 370 nm |
| CCC1=C(C)C2=Cc3cc(I)c(I)n3[B-](F)(F)[N+]2=C1C | 551.5 nm |
| CCCCC1(CCCC)c2cc(C#Cc3ccc4ccc5cccc6ccc3c4c56)ccc2-c2ccc(C#Cc3ccc4ccc5cccc6ccc3c4c56)cc21 | 433 nm |

Same assay, conditions: in CCOCC

| SMILES | emission maximum |
| --- | --- |
| c1ccc2cc(-n3c4ccccc4c4ccccc43)ccc2c1 | 368 nm |

Same assay, conditions: in CN(C)C=O

| SMILES | emission maximum |
| --- | --- |
| CCCCC1(c2ccc(OC)cc2)Nc2ccccc2N=C1c1ccc(OC)cc1 (stereo not given) | 525 nm |
| COC(=O)c1ccccc1-c1c2ccc(=[NH2+])cc-2oc2cc(N)ccc12 | 538 nm |
| Cc1ccc2[nH]c(-c3ccc(-c4ccc(-c5ccc(-c6nc7cc(C)ccc7[nH]6)cc5)c(F)c4)cc3)nc2c1 | 423 nm |
| CCCCC1(CCCC)c2cc(C#Cc3ccc4ccc5cccc6ccc3c4c56)ccc2-c2ccc(C#Cc3ccc4ccc5cccc6ccc3c4c56)cc21 | 441 nm |

Same assay, conditions: in CO

| emission maximum | SMILES |
| --- | --- |
| 514 nm | CN(C)c1ccc(/C=C/c2ccc(-c3nc(C#N)c(C#N)n3C)cc2)cc1 |
| 443 nm | C(=C\c1cnccn1)/c1ccc2nccnc2c1 |
